# Data taken from ChEMBL document CHEMBL1201862, “PubChem BioAssay data set” (2004).
# Calls of active or inactive are those of the source.
# Experiments:
# HT-1080 = test: cytotoxicity in HT1080 fibrosarcoma cells, cell-based, fluorescence readout (AID 620); assay type: functional; settings: Homo sapiens
# [1] = target: T1, Oxysterols receptor LXR-beta (Homo sapiens, UniProt P55055); assay type: functional, cell-based;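 further: Cell-based luminescence dose-response assay of agonist activity at LXR, run as a confirmatory counterscreen to a daf-12 agonist screen; HEK293 cells with Gal4-LXR fusion and GAL4-driven luciferase reporter; agonist potency from rising luciferase signal of a Gal4-LXR reporter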
# T1 sequence (P55055 whole entry): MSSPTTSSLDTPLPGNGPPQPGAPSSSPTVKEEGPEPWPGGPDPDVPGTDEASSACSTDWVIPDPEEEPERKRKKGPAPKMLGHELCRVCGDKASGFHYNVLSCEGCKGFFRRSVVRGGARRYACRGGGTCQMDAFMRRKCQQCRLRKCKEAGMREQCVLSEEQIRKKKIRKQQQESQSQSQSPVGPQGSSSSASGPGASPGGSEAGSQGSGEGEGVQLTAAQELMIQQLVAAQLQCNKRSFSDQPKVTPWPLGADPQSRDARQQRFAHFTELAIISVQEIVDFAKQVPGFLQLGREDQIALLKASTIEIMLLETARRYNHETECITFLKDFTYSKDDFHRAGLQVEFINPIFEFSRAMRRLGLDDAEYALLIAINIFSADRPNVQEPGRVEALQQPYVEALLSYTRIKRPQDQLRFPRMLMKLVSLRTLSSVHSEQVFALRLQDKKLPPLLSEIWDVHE
# [2] = Luminescence Cell-Based Dose Response HTS to Identify Inhibitors of 5'UTR Stem-Loop Driven Prion Protein mRNA Translation in H4 Neuroglioblastoma Cells. [Related pubchem assays: 1827 (Project Summary), 1813 (Primary HTS)]; assay type: functional
# [3] = inhibitors of SNCA 5'UTR-driven reporter translation, confirmation, H4 neuroglioma cells, luminescence (AID 1988); assay type: functional, cell-based
# [4] = target: Luciferin 4-monooxygenase (Photinus pyralis, UniProt P08659); test: Counter Screen for Luciferase-based Assay Positives. [Related pubchem assays: 620, 618, 411 ]
# [5] = target: Melanin-concentrating hormone receptor 1 (Homo sapiens, UniProt Q99705); test: Late-stage fluorescence-based counterscreen for antagonists of the G-protein coupled receptor 7 (GPR7): cell-based dose response assay to identify antagonists of the melanin-concentrating hormone receptor 1 (MCHR1). [Related pubchem assays (depositor defined):AID1861, AID1880, AID1952, AID2148, AID2251, AID2257, AID485339]; assay type: functional;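 further: stimulated with 30 nM MCH peptide agonist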
# [6] = target: Neuropeptide Y receptor type 2 (Homo sapiens, UniProt P49146); test: Fluorescence-based cell-based high-throughput dose response assay for agonists of NPY-Y2. [Related pubchem assays: 1703 (Screening assay (CNGC inhibitors).), 1359 (Screening assay (NPY-Y2 potentiators or agonists).), 1304 (Screening assay (NPY-Y1 potentiators or agonists).), 1710 (Screening assay (NPY-Y2 agonists).), 1791 (Summary AID.)]; assay type: functional
# [7] = target: Neuropeptide Y receptor type 1 (Homo sapiens, UniProt P25929); test: Fluorescence-based counterscreen for agonists of NPY-Y2: cell-based high-throughput dose response assay for agonists of NPY-Y1.; assay type: functional
# HEK293 = test: Fluorescence-based counterscreen for potentiators or agonists of NPY-Y2: cell-based high-throughput dose response assay to identify inhibitors of cyclic nucleotide gated ion channel (CNGC) activity. In this assay, the parental HEK293 cell line transfected with a cyclic-nucleotide gated ion channel (CNGC)-based cAMP sensor is used to measure inhibition of isoproterenol-induced CNGC activity by test compound.; assay type: functional; settings: Homo sapiens;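 further: stimulus is 1 µM isoproterenol at EC100 plus PDE inhibitor Ro 20-1724 at 25 µM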
# Chaperone protein dnaK = Chaperone protein dnaK (Escherichia coli, UniProt C3TRK2); test: DnaK beta-domain binding affinity, SAR follow-up, orthogonal assay for DnaK modulator project, biophysical, isothermal titration calorimetry, full-length DnaK (AID 1495)
# [8] = target: Polyadenylate-binding protein 1 (Homo sapiens, UniProt P11940); test: PABP poly(A) RNA binding inhibitors, primary screen, biochemical, fluorescence polarization, uHTS (AID 2014)
# [9] = target: Eukaryotic translation initiation factor 4H (Homo sapiens, UniProt Q15056); test: human eIF4H binding inhibitors, primary screen, translation initiation inhibitor project, biochemical, uHTS, fluorescence polarization (AID 2012)
# [10] = target: T2, Delta-type opioid receptor (Homo sapiens, UniProt P41143); test: DOR antagonists, SAR follow-up, image-based (AID 2357); assay type: functional
# Mu-type opioid receptor [11] = target: T3, Mu-type opioid receptor (Homo sapiens, UniProt P35372); test: MOR agonists by imaging, SAR follow-up, image-based (AID 2352); assay type: functional
# [12] = target: T2, Delta-type opioid receptor; test: DOR agonists, SAR follow-up, image-based (AID 2370); assay type: functional
# [13] = target: T4, Kappa-type opioid receptor (Homo sapiens, UniProt P41145); test: KOR antagonists by imaging, SAR follow-up, image-based (AID 2348); assay type: functional
# Mu-type opioid receptor [14] = target: T3, Mu-type opioid receptor; test: MOR antagonists, SAR follow-up, image-based (AID 2420); assay type: functional;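 further: compounds added before stimulation of receptor with agonist DAMGO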
# [15] = target: T4, Kappa-type opioid receptor; test: SAR analysis of small molecule agonists of the kappa opioid receptor via a luminescent beta-arrestin assay. [Related pubchem assays (depositor defined):AID1777, AID1786, AID1966, AID2133, AID2136, AID2348, AID2352, AID2357, AID2359, AID2370, AID2420, AID2478, AID2491, AID2492, AID2493, AID2497, AID2498, AID2500, AID449737, AID488822, AID488842]; assay type: functional
# [16] = target: T4, Kappa-type opioid receptor; test: KOR agonist analogs, imaging readout, SAR follow-up, image-based (AID 2359); assay type: functional
# [17] = target: Lysosomal acid glucosylceramidase (Homo sapiens, UniProt P04062); test: Dose response cell-based high throughput screening assay to identify enhancers of beta-glucosidase activity. [Related pubchem assays: 784 ]; assay type: functional
# [18] = target: Heat shock protein HSP 90-alpha (Homo sapiens, UniProt P07900); assay type: functional, organism-based
# Vero [19] = test: cells; assay type: functional; settings: Chlorocebus sabaeus
# [20] = target: T5, Zinc finger protein mex-5 (Caenorhabditis elegans, UniProt Q9XUB2); test: MEX-5/TCR-2 RNA interaction inhibitors, dose response, biochemical, C. elegans, fluorescence polarization (AID 1960)
# T5 sequence (Q9XUB2 whole entry): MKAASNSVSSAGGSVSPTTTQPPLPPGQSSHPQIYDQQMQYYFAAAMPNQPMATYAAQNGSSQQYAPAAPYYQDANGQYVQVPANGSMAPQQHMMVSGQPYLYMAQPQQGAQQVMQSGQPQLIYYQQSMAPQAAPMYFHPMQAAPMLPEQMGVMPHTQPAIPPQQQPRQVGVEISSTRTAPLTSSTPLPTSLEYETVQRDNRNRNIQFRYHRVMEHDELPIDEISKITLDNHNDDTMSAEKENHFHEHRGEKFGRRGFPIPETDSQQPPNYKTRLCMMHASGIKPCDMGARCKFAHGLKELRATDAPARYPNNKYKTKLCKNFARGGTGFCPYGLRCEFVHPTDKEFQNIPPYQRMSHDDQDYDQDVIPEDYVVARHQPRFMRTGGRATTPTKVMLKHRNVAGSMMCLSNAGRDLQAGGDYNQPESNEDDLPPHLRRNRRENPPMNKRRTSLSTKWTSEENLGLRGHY
# Vero [21] = test: cells; assay type: functional, cell-based; settings: Chlorocebus sabaeus
# [22] = test system: Streptococcus sp. 'group A'; test: growth inhibition of control SK(-) GAS strain, dose response, counter-screen for streptokinase expression inhibitor project, luminescence, kanamycin, BacTiterGlo, confirmation (AID 1900); assay type: functional, organism-based
# Vero [23] = test: Vero cell cytotoxicity, cytotoxicity control for flavivirus capping enzyme inhibitors (AID 588742); assay type: functional; settings: Chlorocebus sabaeus
# [24] = target: DNA (cytosine-5)-methyltransferase 1 (Homo sapiens, UniProt P26358); test: DNMT1 methyltransferase inhibitors, confirmation, biochemical, fluorescent molecular beacon (AID 602386); assay type: functional
# [25] = target: T6, RNA-binding protein pos-1 (Caenorhabditis elegans, UniProt G5EF15); test: inhibitors of POS-1/mex-3 RNA binding, dose response, biochemical, fluorescence polarization (AID 1964);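 further: purified POS-1 fused to maltose binding protein made in E. coli; potency of compounds blocking POS-1 binding to fluorescent RNA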
# T6 sequence (G5EF15 whole entry): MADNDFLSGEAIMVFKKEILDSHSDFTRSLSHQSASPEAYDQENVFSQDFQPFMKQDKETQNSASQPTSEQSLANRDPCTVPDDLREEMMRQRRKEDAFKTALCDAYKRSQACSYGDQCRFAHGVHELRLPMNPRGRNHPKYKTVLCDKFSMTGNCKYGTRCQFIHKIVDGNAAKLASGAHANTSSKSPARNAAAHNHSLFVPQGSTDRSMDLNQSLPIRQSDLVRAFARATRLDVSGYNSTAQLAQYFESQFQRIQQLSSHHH
# Streptokinase A = target: T7, Streptokinase A (Streptococcus pyogenes serotype M1, UniProt P10520); test: S. pyogenes streptokinase expression inhibitors, potency, dose response, plasminogen activation absorbance, OD405 (AID 1914); assay type: functional, Streptococcus pyogenes M1 GAS;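 further: secreted streptokinase activity via plasminogen activation per viability signal from cell pellet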
# T7 sequence (P10520 whole entry): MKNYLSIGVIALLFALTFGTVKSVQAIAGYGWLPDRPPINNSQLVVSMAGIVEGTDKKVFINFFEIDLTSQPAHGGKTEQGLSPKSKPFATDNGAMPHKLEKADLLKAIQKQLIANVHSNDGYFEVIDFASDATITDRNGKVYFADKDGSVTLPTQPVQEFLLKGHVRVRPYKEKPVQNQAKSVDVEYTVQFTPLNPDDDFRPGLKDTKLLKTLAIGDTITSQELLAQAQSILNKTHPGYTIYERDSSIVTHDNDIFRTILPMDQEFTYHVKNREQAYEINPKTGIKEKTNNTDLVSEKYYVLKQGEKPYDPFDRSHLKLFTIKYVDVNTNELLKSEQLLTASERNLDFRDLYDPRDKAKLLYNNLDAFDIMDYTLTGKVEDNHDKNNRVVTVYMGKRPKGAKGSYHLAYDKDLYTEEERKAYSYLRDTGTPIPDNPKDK
# [26] = HIV-1 Env-mediated cell fusion inhibitors, dose response, CCR5-tropic Env (AID 2279); assay type: functional
# Streptococcus = test: Group A Streptococcus viability loss, dose response, counter-screen for streptokinase expression inhibitor project, luminescence, BacTiterGlo (AID 1915); assay type: functional, organism-based;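 further: potency for reduction of bacterial viability or growth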
# Genome polyprotein = Genome polyprotein (dengue virus type 2, UniProt P29990); test: Dengue-2 NS5 methyltransferase inhibitors, primary screen, biochemical, confirmation dose response (AID 588689); assay type: functional
# Staphylococcus aureus = test: Inhibitors of Bacterial Quorum Sensing Structure Activity Relationship (SAR) Analysis: Dose Response Assay. [Related pubchem assays: 700, 527 ]; assay type: functional, organism-based
# [27] = inhibitors of firefly luciferase expression or activity, dose response, H4 neuroglioma cells, luminescence (AID 1990); assay type: functional, cell-based
# [28] = target: Cyclin-dependent kinase 5/CDK5 activator 1 (Homo sapiens, UniProt Q00535); test: CDK5/p35 kinase inhibitors, dose response, biochemical, cherry-picked samples, set 2 (AID 504545)
# [29] = target: T8, Ubiquitin-conjugating enzyme E2 N (Homo sapiens, UniProt P61088); assay type: functional;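 further: Dose-response confirmation in a TR-FRET assay detecting UBC13-driven polyubiquitin chain formation, inhibition measured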
# T8 sequence (P61088 whole entry): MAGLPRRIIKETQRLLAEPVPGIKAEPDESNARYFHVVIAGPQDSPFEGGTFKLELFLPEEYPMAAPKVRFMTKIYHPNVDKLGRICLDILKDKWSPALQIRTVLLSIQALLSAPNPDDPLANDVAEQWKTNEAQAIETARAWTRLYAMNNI
# Cytochrome P450 2D6 = Cytochrome P450 2D6 (Homo sapiens, UniProt P10635); test: qHTS Assay for Inhibitors and Substrates of Cytochrome P450 2D6. [Related pubchem assays: 410 ]; assay type: ADME; settings: read-out: Potency
# Sequence of Cytochrome P450 2D6 (P10635 whole entry): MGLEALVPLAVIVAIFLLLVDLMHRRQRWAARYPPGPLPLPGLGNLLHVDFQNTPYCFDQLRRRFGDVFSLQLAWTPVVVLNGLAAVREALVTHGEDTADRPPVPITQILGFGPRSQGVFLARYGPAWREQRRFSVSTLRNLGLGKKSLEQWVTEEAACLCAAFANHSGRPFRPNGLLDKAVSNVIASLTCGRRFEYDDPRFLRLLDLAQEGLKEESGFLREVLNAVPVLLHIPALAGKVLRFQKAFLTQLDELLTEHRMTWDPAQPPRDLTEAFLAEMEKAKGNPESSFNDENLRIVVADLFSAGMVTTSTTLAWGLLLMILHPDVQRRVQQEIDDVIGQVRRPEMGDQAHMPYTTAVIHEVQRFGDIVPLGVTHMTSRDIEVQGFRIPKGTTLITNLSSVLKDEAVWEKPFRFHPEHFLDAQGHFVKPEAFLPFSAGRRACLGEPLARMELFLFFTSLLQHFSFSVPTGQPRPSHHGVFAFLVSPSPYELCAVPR
# T4 sequence (P41145 whole entry): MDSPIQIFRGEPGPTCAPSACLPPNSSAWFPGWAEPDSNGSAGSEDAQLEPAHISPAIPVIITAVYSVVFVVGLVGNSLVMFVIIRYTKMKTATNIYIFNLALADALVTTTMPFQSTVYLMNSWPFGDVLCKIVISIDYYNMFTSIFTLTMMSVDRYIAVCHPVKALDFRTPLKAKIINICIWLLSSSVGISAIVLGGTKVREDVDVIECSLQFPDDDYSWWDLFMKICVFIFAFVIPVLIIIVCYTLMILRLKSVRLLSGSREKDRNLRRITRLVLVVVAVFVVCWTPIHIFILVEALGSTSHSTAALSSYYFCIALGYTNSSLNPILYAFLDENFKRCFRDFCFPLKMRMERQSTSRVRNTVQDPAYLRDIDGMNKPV
# T3 sequence (P35372 whole entry): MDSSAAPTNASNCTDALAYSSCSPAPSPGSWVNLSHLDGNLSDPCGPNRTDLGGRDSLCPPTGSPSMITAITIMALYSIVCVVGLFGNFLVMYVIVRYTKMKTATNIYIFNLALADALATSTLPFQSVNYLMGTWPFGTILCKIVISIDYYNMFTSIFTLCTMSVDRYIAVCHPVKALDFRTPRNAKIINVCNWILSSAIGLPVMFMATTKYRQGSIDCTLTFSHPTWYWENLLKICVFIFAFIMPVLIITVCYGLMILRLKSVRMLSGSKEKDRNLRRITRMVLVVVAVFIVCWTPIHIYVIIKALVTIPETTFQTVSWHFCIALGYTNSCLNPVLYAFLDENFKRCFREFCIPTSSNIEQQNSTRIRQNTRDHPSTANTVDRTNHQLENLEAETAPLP
# T2 sequence (P41143 whole entry): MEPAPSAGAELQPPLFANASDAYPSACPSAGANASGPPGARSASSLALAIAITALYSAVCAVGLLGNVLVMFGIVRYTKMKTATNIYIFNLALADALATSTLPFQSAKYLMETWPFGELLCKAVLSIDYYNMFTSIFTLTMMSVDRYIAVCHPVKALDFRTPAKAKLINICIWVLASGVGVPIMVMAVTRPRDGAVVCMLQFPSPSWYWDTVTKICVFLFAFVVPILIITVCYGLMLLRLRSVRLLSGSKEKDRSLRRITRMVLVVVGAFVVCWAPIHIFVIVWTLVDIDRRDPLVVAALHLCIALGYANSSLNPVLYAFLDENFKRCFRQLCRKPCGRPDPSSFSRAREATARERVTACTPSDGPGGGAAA
# Sequence of Chaperone protein dnaK (C3TRK2 whole entry): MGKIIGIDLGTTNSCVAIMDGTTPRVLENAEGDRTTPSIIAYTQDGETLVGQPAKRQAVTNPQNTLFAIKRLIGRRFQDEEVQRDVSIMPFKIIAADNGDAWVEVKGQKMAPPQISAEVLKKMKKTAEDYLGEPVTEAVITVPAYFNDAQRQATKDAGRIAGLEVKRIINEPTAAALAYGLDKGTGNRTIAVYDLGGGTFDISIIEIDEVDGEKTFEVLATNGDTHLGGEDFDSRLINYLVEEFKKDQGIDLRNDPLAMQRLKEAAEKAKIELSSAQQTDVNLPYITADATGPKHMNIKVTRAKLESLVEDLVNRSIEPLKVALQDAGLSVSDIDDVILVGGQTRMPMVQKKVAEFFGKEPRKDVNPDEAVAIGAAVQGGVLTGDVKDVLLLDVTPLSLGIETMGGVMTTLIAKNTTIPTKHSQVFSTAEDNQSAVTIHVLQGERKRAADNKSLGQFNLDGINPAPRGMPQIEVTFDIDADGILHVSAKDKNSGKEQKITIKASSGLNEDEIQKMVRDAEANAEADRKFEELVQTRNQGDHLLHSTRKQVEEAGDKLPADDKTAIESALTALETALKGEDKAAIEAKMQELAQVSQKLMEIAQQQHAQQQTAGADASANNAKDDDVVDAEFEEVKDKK
# Sequence of Cyclin-dependent kinase 5/CDK5 activator 1 (Q00535 whole entry): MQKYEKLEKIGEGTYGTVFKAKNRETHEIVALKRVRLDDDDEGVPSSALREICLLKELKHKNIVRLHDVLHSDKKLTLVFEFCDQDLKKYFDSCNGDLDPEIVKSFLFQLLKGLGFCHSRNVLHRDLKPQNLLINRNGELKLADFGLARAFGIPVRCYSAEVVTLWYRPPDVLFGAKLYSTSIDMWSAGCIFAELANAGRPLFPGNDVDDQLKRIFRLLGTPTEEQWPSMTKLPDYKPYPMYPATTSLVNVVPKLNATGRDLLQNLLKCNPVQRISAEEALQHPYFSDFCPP
# Sequence of Cyclin-dependent kinase 5/CDK5 activator 1 (Q15078 whole entry, further chain): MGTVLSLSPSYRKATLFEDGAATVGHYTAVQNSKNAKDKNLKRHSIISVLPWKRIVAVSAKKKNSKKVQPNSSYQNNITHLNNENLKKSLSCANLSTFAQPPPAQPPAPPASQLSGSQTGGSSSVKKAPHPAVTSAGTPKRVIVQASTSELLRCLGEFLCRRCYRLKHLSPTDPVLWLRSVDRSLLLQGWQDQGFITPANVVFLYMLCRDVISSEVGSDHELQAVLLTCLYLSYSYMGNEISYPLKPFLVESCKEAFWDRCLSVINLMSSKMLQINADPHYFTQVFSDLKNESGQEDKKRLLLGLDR
# Sequence of Genome polyprotein (P29990 2492-3391 limits assumed): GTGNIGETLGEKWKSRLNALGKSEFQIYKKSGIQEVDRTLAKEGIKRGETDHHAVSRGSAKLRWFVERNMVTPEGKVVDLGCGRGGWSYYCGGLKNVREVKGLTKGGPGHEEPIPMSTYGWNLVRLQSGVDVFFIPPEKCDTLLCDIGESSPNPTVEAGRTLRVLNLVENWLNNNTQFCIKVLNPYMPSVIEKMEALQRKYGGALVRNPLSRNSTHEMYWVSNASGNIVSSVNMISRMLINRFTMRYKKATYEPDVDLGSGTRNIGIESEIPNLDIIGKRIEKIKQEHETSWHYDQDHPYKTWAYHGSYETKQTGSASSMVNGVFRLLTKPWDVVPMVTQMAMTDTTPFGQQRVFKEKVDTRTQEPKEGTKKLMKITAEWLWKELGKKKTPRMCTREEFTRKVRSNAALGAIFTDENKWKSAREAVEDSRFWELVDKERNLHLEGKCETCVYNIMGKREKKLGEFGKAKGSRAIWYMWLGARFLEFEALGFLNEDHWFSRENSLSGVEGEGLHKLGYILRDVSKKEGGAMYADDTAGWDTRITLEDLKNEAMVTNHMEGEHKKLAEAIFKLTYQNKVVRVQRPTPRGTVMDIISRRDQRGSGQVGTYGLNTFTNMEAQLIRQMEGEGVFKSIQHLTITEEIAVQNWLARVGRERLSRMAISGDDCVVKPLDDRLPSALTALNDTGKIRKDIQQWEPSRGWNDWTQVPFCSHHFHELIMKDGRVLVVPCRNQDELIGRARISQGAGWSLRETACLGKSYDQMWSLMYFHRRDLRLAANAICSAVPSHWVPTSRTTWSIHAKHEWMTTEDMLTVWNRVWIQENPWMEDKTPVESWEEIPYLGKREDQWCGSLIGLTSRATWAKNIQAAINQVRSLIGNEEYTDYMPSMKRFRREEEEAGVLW
# Sequence of Melanin-concentrating hormone receptor 1 (Q99705 whole entry): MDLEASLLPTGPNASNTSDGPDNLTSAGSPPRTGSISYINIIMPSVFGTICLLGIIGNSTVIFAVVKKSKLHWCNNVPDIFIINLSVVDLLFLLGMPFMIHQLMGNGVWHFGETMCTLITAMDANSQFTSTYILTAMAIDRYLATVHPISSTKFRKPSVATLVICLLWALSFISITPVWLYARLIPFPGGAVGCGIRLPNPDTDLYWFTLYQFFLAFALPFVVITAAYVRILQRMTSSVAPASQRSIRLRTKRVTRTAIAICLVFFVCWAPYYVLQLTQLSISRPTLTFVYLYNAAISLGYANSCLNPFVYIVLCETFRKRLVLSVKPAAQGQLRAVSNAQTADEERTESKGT
# Sequence of Neuropeptide Y receptor type 1 (P25929 whole entry): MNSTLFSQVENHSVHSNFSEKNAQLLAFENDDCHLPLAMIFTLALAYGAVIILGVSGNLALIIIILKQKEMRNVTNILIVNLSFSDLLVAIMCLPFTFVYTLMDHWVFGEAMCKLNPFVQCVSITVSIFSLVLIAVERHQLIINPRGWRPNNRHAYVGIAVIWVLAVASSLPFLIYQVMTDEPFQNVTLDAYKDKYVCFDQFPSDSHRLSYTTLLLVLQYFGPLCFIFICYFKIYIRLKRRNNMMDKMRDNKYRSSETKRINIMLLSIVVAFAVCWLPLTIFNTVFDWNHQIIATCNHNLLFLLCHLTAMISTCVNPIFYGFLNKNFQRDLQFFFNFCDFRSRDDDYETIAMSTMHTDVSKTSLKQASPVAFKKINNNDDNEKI
structure (smiles),measurement,setting,value
Cc1ccc(-c2nc3n(n2)Cc2ccccc2-3)cc1,EC50,HT-1080,> 50 µM (not active)
same,EC50,[1],> 67.5 µM (inactive)
same,EC50,cells,> 67.5 µM (inactive)
same,EC50,[2],0.364 µM (active)
same,EC50,[3],6.59 µM (active)
same,EC50,[4],2.87 µM (active)
CCc1ccc(Oc2c(Cl)cnn(-c3ccc(C)cc3)c2=O)cc1,IC50,[5],5 µM (active)
O=C(Nc1sc2c(c1-c1nc3ccccc3[nH]1)CCCC2)C1CC1,EC50,[6],> 35.4 µM (not active)
same,EC50,[7],17.3 µM (not active)
same,EC50,HEK293,> 35.4 µM (not active)
O=C(NCc1ccccc1O)c1cccs1,Kd,Chaperone protein dnaK,2.3 µM (active)
O=C(O)c1ccc(N/N=C/c2cc3c(cc2[N+](=O)[O-])OCO3)cc1,IC50,[8],48.8 µM (active)
same,IC50,[9],21.8 µM (active)
Cc1cccc(-n2ccnc2CN2CCC(CO)(CC3CCCCO3)CC2)c1 (stereo not given),IC50,[10],> 32 µM (inactive)
same,EC50,Mu-type opioid receptor [11],> 32 µM (inactive)
same,EC50,[12],> 32 µM (inactive)
same,IC50,[13],> 32 µM (inactive)
same,IC50,Mu-type opioid receptor [14],> 32 µM (inactive)
same,EC50,[15],> 10 µM (inactive)
same,EC50,[16],5.82 µM (active)
COC(=O)c1cn(C(=O)c2cccs2)c2ccccc12,EC50,[17],> 50 µM (not active)
COc1ccc(C(=O)/C=C/c2ccc(-c3ccccc3)cc2)cc1CSCC(=O)O,AC50,[18],9.3 µM (active)
same,CC50,Vero [19],> 25 µM (active)
same,EC50,[20],> 300 µM (not active)
same,IC50,Vero [21],> 25 µM (active)
same,EC50,[22],4.28 µM (active)
same,CC50,Vero [23],29.5 µM (active)
same,IC50,[24],9.8 µM (active)
same,EC50,[25],> 300 µM (not active)
same,EC50,Streptokinase A,8.81 µM (active)
same,IC50,[26],9.89 µM (active)
same,EC50,Streptococcus,> 150 µM (not active)
same,IC50,Genome polyprotein,37.7 µM (active)
CCCCc1oc2ccccc2c1C(=O)c1ccc(O)cc1,IC50,Staphylococcus aureus,0.544 µM (active)
CC(C)n1cnc2c(Nc3cccc(Cl)c3)nc(N(CCO)CCCO)nc21,EC50,[27],10.8 µM (active)
same,EC50,[2],10.7 µM (active)
same,AC50,[28],0.463 µM (active)
same,IC50,[29],> 20 µM (inactive)
same,EC50,[3],9.32 µM (active)
CCOC(=O)OCC1C=C[C@H](c2cc(-c3ccccc3)ccc2O)C(c2ccc(C(C)=O)cc2)O1 (stereo not given in full),AC50,Cytochrome P450 2D6,6.31 µM (inconclusive)
